Data reported in US20250099431A1, “GLP-1R MODULATING COMPOUNDS” (priority 2020, published 2025).

Experiments:
[1] = Microsomal stability (liver microsomal assay, mixed cofactors); predicted hepatic clearance; format: in vitro ADME; conditions: liver microsomes 1.0 mg protein/mL (+UDPGA +NADPH), 1 μM analyte, 37° C.; scaled with human liver weight and hepatic blood flow 1.3 L/hr/kg
Method in brief: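 Compound at 1 μM with human or rat pooled liver microsomes, alamethicin-treated, pH 7.4 phosphate, NADPH-regenerating plus UDPGA cofactors, 37° C, sampled 0–70 min. Parent/internal standard ratio by RapidFire QToF MS; half-life from initial log-linear decay, scaled to intrinsic and predicted hepatic clearance and hepatic extraction.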

[2] = target: GLP-1R (Homo sapiens (Human), UniProt P43220); experiment: GLP-1R activation: cAMP increase in CHO cells stably expressing GLP-1R; format: cell-based; conditions: cAMP increase, 10 point dose response, 30 minutes incubation at 37° C., read-out: EC50
GLP-1R, sequence (P43220 24-463): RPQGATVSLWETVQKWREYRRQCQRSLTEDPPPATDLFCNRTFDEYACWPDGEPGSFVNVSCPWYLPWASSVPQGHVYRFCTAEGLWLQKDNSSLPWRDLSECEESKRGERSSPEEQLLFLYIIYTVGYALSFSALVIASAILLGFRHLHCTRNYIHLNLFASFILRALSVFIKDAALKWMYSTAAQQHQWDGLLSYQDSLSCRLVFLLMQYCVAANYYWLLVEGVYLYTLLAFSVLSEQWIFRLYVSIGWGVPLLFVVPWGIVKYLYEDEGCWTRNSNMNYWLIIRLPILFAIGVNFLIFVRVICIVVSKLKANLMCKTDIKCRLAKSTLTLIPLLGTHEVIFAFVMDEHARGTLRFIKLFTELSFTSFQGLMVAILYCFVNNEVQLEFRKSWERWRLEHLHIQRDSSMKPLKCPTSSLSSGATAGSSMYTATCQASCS
Method in brief: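 CHO cells stably expressing GLP-1R were incubated 1 h at 37 °C in medium with 1% BSA, then exposed to compound in a 10-point dose response for 30 min at 37 °C. cAMP rise was detected by HTRF (Gs Dynamic kit). EC50 came from a sigmoidal fit of response against log agonist concentration.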

Row | Predicted Hepatic Clearance (Pred. Cl.) [1] [mL/min/kg] | EC50 [2] [nM] | Structure (SMILES)
1 | 3.5 | 0.78 | CC1(c2ccc(Cl)cn2)Oc2cccc(-c3cc(F)c(Cc4nc5ccc(C(=O)O)cc5n4C[C@@H]4CCO4)c(F)c3F)c2O1 (stereo partly drawn) [Example 70, 2-(4-(2-(5-chloropyridin-2-yl)-2-methylbenzo[d][1, 3]dioxol-4-yl)-2,3,6-trifluorobenzyl)-1-(((S)-oxetan-2-yl)methyl)-1H-benzo[d]imidazole-6-carboxylic acid]
2 | <1.83 | 37 | CC1(c2ccc(Cl)cn2)Oc2cccc(-c3ccn(Cc4nc5ccc(C(=O)O)cc5n4C[C@@H]4CCO4)c(=O)c3)c2O1 (stereo partly drawn) [Example 26, 2-((4-(2-(5-chloropyridin-2-yl)-2-methylbenzo[d][1, 3]dioxol-4-yl)-2-oxopyridin-1(2H)-yl)methyl)-1-(((S)-oxetan-2-yl)methyl)-1H-benzo[d]imidazole-6-carboxylic acid]
3 | 15.2 | 1.9 | COCCn1c(Cc2c(F)cc(-c3cccc4c3OC(C)(c3ccc(C#N)cc3F)O4)c(F)c2F)nc2ccc(C(=O)O)cc21 (single isomer, unassigned) [Example 97, 2-(4-(2-(4-cyano-2-fluorophenyl)-2-methylbenzo[d][1, 3]dioxol-4-yl)-2,3,6-trifluorobenzyl)-1-(2-methoxyethyl)-1H-benzo[d]imidazole-6-carboxylic acid]
4 | 3 | 628 | COCCn1c(Cc2c(F)cc(-c3cccc4c3OC3c5ccc(Cl)cc5OC43)cc2F)nc2ccc(C(=O)O)cc21 (stereo not drawn) [Example 54, 2-(4-(7-chloro-4b,9b-dihydrobenzofuro [3,2-b]benzofuran-1-yl)-2,6-difluorobenzyl)-1-(2-methoxyethyl)-1H-benzo[d]imidazole-6-carboxylic acid]
5 | 2.5 | 8.6 | CC1(c2ccc(Cl)cc2F)Oc2cccc(-c3cc(F)c(Cc4nc5c(F)cc(C(=O)O)cc5n4CC4(CC(N)=O)CC4)c(F)c3)c2O1 (stereo not drawn) [Example 9, 1-((1-(2-amino-2-oxoethyl)cyclopro-pyl)methyl)-2-(4-(2-(4-chloro-2-fluorophenyl)-2-methylbenzo[d][1, 3]dioxol-4-yl)-2,6-difluorobenzyl)-4-fluoro-1H-benzo[d]imidazole-6-carboxylic acid]
6 | 11.3 | 2.4 | COCCn1c(Cc2c(F)cc(-c3cccc4c3OC(C)(c3ccc(C#N)cc3F)O4)cc2F)nc2ccc(C(=O)O)cc21 (single isomer, unassigned) [Example 99, 2-(4-(2-(4-cyano-2-fluorophenyl)-2-methylbenzo[d][1, 3]dioxol-4-yl)-2,6-difluorobenzyl)-1-(2-methoxyethyl)-1H-benzo[d]imidazole-6-carboxylic acid]
7 | 5 | 1230 | COCCn1c(Cc2cc(F)c(-c3cccc4c3OC(c3ccc(C#N)cc3F)O4)cc2F)nc2ccc(C(=O)O)cc21 (single isomer, unassigned) [Example 40, 2-(4-(2-(4-cyano-2-fluorophenyl)benzo [d][1,3]dioxol-4-yl)-2,5-difluorobenzyl)-1-(2-methoxyethyl)-1H-benzo[d]imidazole-6-carboxylic acid]
8 | 4.33 | 0.3 | CC1(c2ccc(C#N)cc2F)Oc2cccc(-c3cc(F)c(Cc4nc5ccc(C(=O)O)cc5n4C[C@@H]4CCO4)cc3F)c2O1 (stereo partly drawn) [Example 25, 2-(4-(2-(4-cyano-2-fluorophenyl)-2-methylbenzo[d][1, 3]dioxol-4-yl)-2,5-difluorobenzyl)-1-(((S)-oxetan-2-yl)methyl)-1H-benzo[d]imidazole-6-carboxylic acid]
9 | 9.17 | 347 | COCCn1c(Cc2c(F)cc(-c3cccc4c3OC3(CCCCc5cc(Cl)ccc53)O4)cc2F)nc2ccc(C(=O)O)cc21 (stereo not drawn) [Example 57, 2-(4-(2′-chloro-6′,7′,8′,9′-tetrahydrospiro[benzo [d][1,3]dioxole-2,5′-benzo[7]annulen]-4-yl)-2,6-difluorobenzyl)-1-(2-methoxyethyl)-1H-benzo[d]imidazole-6-carboxylic acid]
10 | 3.83 | 0.69 | CC1(c2ccc(C#N)cc2F)Oc2cccc(-c3cc(F)c(Cc4nc5ccc(C(=O)O)cc5n4C[C@@H]4CCO4)c(F)c3)c2O1 (stereo partly drawn) [Example 91, 2-(4-(2-(4-cyano-2-fluorophenyl)-2-methylbenzo[d][1, 3]dioxol-4-yl)-2,6-difluorobenzyl)-1-(((S)-oxetan-2-yl)methyl)-1H-benzo[d]imidazole-6-carboxylic acid]
11 | 7.17 | 1780 | COCCn1c(Cc2ccc(-c3cccc4c3OC(c3ccc(Cl)cn3)C4)cc2F)nc2ccc(C(=O)O)cc21 (stereo not drawn) [Example 78, 2-(4-(2-(5-chloropyridin-2-yl)-2,3-dihydrobenzofuran-7-yl)-2-fluorobenzyl)-1-(2-methoxyethyl)-1H-benzo[d]imidazole-6-carboxylic acid]
12 | 3.17 | 49 | COCCn1c(Cc2cc(F)c(-c3cccc4c3OC(c3ccc(C#N)cc3F)O4)cc2F)nc2ccc(C(=O)O)cc21 (single isomer, unassigned) [Example 39, 2-(4-(2-(4-cyano-2-fluorophenyl)benzo [d][1,3]dioxol-4-yl)-2,5-difluorobenzyl)-1-(2-methoxyethyl)-1H-benzo[d]imidazole-6-carboxylic acid]
13 | 4 | 2.4 | CC1(c2ccc(Cl)cn2)Oc2cccc(-c3cc(F)c(Cc4nc5ccc(C(=O)O)cc5n4CC4(CF)CC4)c(F)c3)c2O1 (stereo not drawn) [Example 12, 2-(4-(2-(5-chloropyridin-2-yl)-2-methylbenzo[d][1, 3]dioxol-4-yl)-2,6-difluorobenzyl)-1-((1-(fluoromethyl)cyclo-propyl)methyl)-1H-benzo[d]imidazole-6-carboxylic acid]
14 | 4.5 | 0.015 | CC1(c2ccc(Cl)cc2F)Oc2cccc(-c3ccc(Cc4nc5ccc(C(=O)O)cc5n4C[C@@H]4CCO4)cc3F)c2O1 (stereo partly drawn) [Example 15, 2-(4-(2-(4-chloro-2-fluorophenyl)-2-methylbenzo[d][1, 3]dioxol-4-yl)-3-fluorobenzyl)-1-(((S)-oxetan-2-yl)methyl)-1H-benzo[d]imidazole-6-carboxylic acid]
15 | 3.83 | 10000 | O=C(O)c1ccc2nc(Cc3c(F)cc(-c4cccc5c4CN(c4ccc(Cl)cc4F)C5)cc3F)n(C[C@@H]3CCO3)c2c1 [Example 71, (S)-2-(4-(2-(4-chloro-2-fluorophenyl)isoindolin-4-yl)-2,6-difluorobenzyl)-1-(oxetan-2-ylmethyl)-1H-benzo[d]imidazole-6-carboxylic acid]
16 | 4 | 37 | COCCn1c(Cc2c(F)cc(-c3cccc4c3OC(c3ccc(C#N)cc3F)O4)cc2F)nc2ccc(C(=O)O)cc21 (single isomer, unassigned) [Example 38, 2-(4-(2-(4-cyano-2-fluorophenyl)benzo [d][1,3]dioxol-4-yl)-2,6-difluorobenzyl)-1-(2-methoxyethyl)-1H-benzo[d]imidazole-6-carboxylic acid]

Row | Structure (SMILES) | Predicted Hepatic Clearance (Pred. Cl.) [1] [mL/min/kg] | EC50 [2] [nM]
17 | COCCn1c(Cc2ccc(-c3cccc4c3OC(C)(c3ccc(Cl)cc3F)O4)n(C)c2=O)nc2ccc(C(=O)O)cc21 (stereo not drawn) [Example 87, 2-((6-(2-(4-chloro-2-fluorophenyl)-2-methylbenzo[d][1, 3]dioxol-4-yl)-1-methyl-2-oxo-1,2-dihydropyridin-3-yl)methyl)-1-(2-methoxyethyl)-1H-benzo[d]imidazole-6-carboxylic acid] | 9 | 1150
18 | CC1(c2ccc(Cl)cc2F)Oc2cccc(-c3ccc(Cc4nc5ccc(C(=O)O)cc5n4C[C@@H]4CCO4)c(F)c3)c2O1 (stereo partly drawn) [Example 23, 2-(4-(2-(4-chloro-2-fluorophenyl)-2-methylbenzo[d][1, 3]dioxol-4-yl)-2-fluorobenzyl)-1-(((S)-oxetan-2-yl)methyl)-1H-benzo[d]imidazole-6-carboxylic acid] | 2.33 | 0.49
19 | COCCn1c(Cc2c(F)cc(-c3cccc4c3OC(C)(c3ccc(C#N)cn3)O4)cc2F)nc2ccc(C(=O)O)cc21 (stereo not drawn) [Example 66, 2-(4-(2-(5-cyanopyridin-2-yl)-2-methylbenzo[d][1, 3]dioxol-4-yl)-2,6-difluorobenzyl)-1-(2-methoxyethyl)-1H-benzo[d]imidazole-6-carboxylic acid] | 7.17 | 21
20 | CCC1(c2ccc(Cl)cc2F)Oc2cccc(-c3cc(F)c(Cc4nc5ccc(C(=O)O)cc5n4CCOC)c(F)c3)c2O1 (stereo not drawn) [Example 53, 2-(4-(2-(4-chloro-2-fluorophenyl)-2-ethylbenzo[d][1,3]dioxol-4-yl)-2,6-difluorobenzyl)-1-(2-methoxyethyl)-1H-benzo[d]imidazole-6-carboxylic acid] | 13 | 1290
21 | CC1(c2ccc(Cl)cc2F)Oc2cccc(-c3cc(F)c(Cc4nc5ccc(C(=O)O)cc5n4C[C@@H]4CCO4)c(F)c3)c2O1 (stereo partly drawn) [Example 22, 2-(4-(2-(4-chloro-2-fluorophenyl)-2-methylbenzo[d][1, 3]dioxol-4-yl)-2,6-difluorobenzyl)-1-(((S)-oxetan-2-yl)methyl)-1H-benzo[d]imidazole-6-carboxylic acid] | <1.83 | 0.024
